Measurements from EP4615450B1 (priority 2023, dated 2024).

Tested on: SARS-CoV2
Experiment: PCR test (Ct value) in patients, three successive lozenges (Beispiel 2)
Type: in vivo, Patienten
Conditions: result in words; over time with successive administration of several lozenges, also versus placebo
Excerpt: Darüber hinaus wird die antivirale Wirksamkeit einer erfindungsgemäß einsetzbaren Zusammensetzung in Form der in Beispiel 1 beschriebenen Octenidindihydrochlorid-Lutschtablette an weiteren Patienten untersucht. Die Patienten weisen im Hinblick auf SARS-CoV2 vor Verabreichung der Lutschtabletten einen positiven PCR-Test auf (in der nachfolgenden Tabelle 3 unter "Ct0" angegeben).
Die Patienten erhalten insgesamt jeweils drei Octenidindihydrochlorid-Lutschtabletten in definierter zeitlicher Abfolge. Die Lutschzeit beträgt für eine jeweilige Tablette 15 Minuten, wobei jeweils nach jeweils weiteren 15 Minuten ein PCR-Test durchgeführt wird. Der PCR-Test nach Verabreichung der ersten Octenidindihydrochlorid-Lutschtablette wird somit 30 Minuten nach erfolgter Verabreichung durchgeführt (in der nachfolgenden Tabelle 3 unter "Ct1" angeführt).
Die zweite Octenidindihydrochlorid-Lutschtablette wird 2,5 Stunden nach Verabreichung der ersten Lutschtablette verabreicht, wobei der diesbezügliche PCR-Test 3 Stunden nach Verabreichung der ersten Lutschtablette und 30 Minuten nach Verabreichung der zweiten Lutsch-tablette durchgeführt wird (in der nachfolgenden Tabelle 3 unter "Ct2" angeführt). […]

CCCCCCCCNc1cc[n+](CCCCCCCCCC[n+]2ccc(NCCCCCCCC)cc2)cc1.[Cl-].[Cl-] [Octenidindihydrochlorid, 1,1'-(1,10-Decandiyl)bis[4-(octylamino)pyridinium]-dichlorid]
Ct-Wert: deutliche und nachhaltige Zuname des jeweiligen Ct-Werts
